Measurements reported in PubChem BioAssay AID1648 (Sanford-Burnham Center for Chemical Genomics, 2009).
Calls of active or inactive are those of the source. No rule for the calls is given here.

Each compound was assayed against Serine/threonine-protein kinase mTOR (Homo sapiens) (UniProt P42345) (assay: mTOR FRB domain ligand binding – biophysical, NMR (AID 1648)). Conditions: NMR binding to FRB domain, chemical shift.
Sequence of Serine/threonine-protein kinase mTOR (Homo sapiens) (P42345 2015-2114): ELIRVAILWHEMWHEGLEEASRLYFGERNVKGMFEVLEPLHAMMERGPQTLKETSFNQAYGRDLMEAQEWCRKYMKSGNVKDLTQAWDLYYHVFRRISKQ
In the case of Cc1cc(=O)n2[nH]c(C)cc2n1, the Kd is reported as > 4 mM (inactive). With C/C1=C\CCC(=O)C2CC(C)(C)C2CC1 (stereo not given) the Kd was > 4 mM (inactive). In the case of CCCNC(=O)CSc1ncccc1C(=O)O, the Kd is reported as > 4 mM (inactive). With NC(CSCSCC(N)C(=O)O)C(=O)O (stereo not given) the Kd was > 4 mM (inactive). With CN(C(=O)NC1CCS(=O)(=O)C1)C1CCCCC1 (stereo not given) the Kd was > 4 mM (inactive). OCc1nc2ccccc2s1 was tested, and the Kd was > 4 mM (inactive). In the case of CN1CCN(S(=O)(=O)c2ccc(=O)[nH]c2)CC1, the Kd is reported as > 4 mM (inactive). In the case of CCc1c(C(=O)N2CCOCC2)csc1C, the Kd is reported as > 4 mM (inactive). c1nnc2c3c4c(sc3ncn12)CCCC4 was tested, and the Kd was > 4 mM (inactive). COCC(=O)N1CCCc2ccccc21 was tested, and the Kd was > 4 mM (inactive). Cc1nnc(NCCCO)[nH]c1=O was tested, and the Kd was > 4 mM (inactive). With COc1ccc([C@H]2Oc3c(I)c(OC)cc(OC)c3C[C@@H]2O)cc1OC the Kd was > 4 mM (inactive). With C[C@@H]1OC(O[C@H]2C(O[C@H]3CC[C@@]4(C)C(CC[C@]5(C)C4CC=C4C6CC(C)(C)CC[C@]6(C(=O)O)CC[C@]45C)[C@]3(C)CO)OC[C@H](O)[C@@H]2O)[C@H](O)[C@H](O)[C@H]1O (stereo not given in full) the Kd was > 4 mM (inactive). With Cc1cccc(OCc2nnc(N)s2)c1 the Kd was > 4 mM (inactive). In the case of CC(=O)Nc1sccc1C(=O)NC(N)=O, the Kd is reported as > 4 mM (inactive). With c1ccc(CNc2ncnc3nc[nH]c23)nc1 the Kd was > 4 mM (inactive). OCc1ccc(-c2ccccn2)s1 was tested, and the Kd was > 4 mM (inactive). Nc1nc(-c2ccncc2)cs1 was tested, and the Kd was > 4 mM (inactive). CNc1nnc(CSc2nc(C)cc(C)n2)s1 was tested, and the Kd was > 4 mM (inactive). With NCc1ccc(-n2cccn2)cc1 the Kd was > 4 mM (inactive). With NC(=S)NC(=O)CN1C(=O)c2ccccc2C1=O the Kd was > 4 mM (inactive). CNC(C)[C@H](O)c1ccccc1 (stereo not given in full) was tested, and the Kd was > 4 mM (inactive). In the case of COn1c(=O)c(C)[n+]([O-])c2ccccc21, the Kd is reported as > 4 mM (inactive). For O=c1[nH]c(=S)c2c(n1-c1ccccc1)CCC2, the Kd was > 4 mM (inactive). In the case of COc1cc(C(=O)O[C@H]2CC[C@@]3(C)[C@@H]4CC[C@H]5[C@]6(O)C[C@H](O)[C@@]7(O)[C@@H](CN8C[C@@H](C)CC[C@H]8[C@@]7(C)O)[C@]6(O)C[C@@]53OC24O)cc(OC)c1OC, the Kd is reported as > 4 mM (inactive). For CC(=O)Oc1cc2c(C(C)=O)coc2c2ccccc12, the Kd was > 4 mM (inactive). With O=C(O)c1scc2c1CCCC2 the Kd was > 4 mM (inactive). For NC(=O)CN1CCC(c2nc3ccccc3[nH]2)CC1, the Kd was > 4 mM (inactive). For O=C(c1ccco1)N1CCN(c2ccc(Cl)cc2)CC1, the Kd was > 4 mM (inactive). In the case of O=C(O)c1ccc2c(c1)OCCO2, the Kd is reported as > 4 mM (inactive). For COc1ccc(-c2c(O)c3c(OC)c4c(cc3oc2=O)OC(C)(C)CC4)cc1, the Kd was > 4 mM (inactive). O=C1CCC(=O)N1c1nc2ccccc2s1 was tested, and the Kd was > 4 mM (inactive). Cc1nn2c(nc1=O)SCC(c1ccccc1)=N2 was tested, and the Kd was > 4 mM (inactive). Cc1occc1C(=O)NCc1ccccn1 was tested, and the Kd was > 4 mM (inactive). In the case of COc1ccc(CN2CCNC(=O)C2CC(=O)O)cc1C (stereo not given), the Kd is reported as > 4 mM (inactive). For COc1ccc(C2(CN)CCOCC2)cc1OC, the Kd was > 4 mM (inactive). For Cc1nnc(SCC(=O)N2CCc3ccccc32)s1, the Kd was > 4 mM (inactive). [O-][n+]1onc2c1CCc1c-2nc(-c2ccccc2)n1O was tested, and the Kd was > 4 mM (inactive). With CC1=C/C(=C\c2c(O)[nH]c(=O)[nH]c2=O)C(C)=N1 the Kd was > 4 mM (inactive). With Cc1cc2c(=O)n(C)c(SCC(N)=O)nc2s1 the Kd was > 4 mM (inactive). In the case of COC(=O)c1cccc2cc[nH]c12, the Kd is reported as > 4 mM (inactive). Cc1ncoc1C(=O)Nc1ccccc1C(N)=O was tested, and the Kd was > 4 mM (inactive). In the case of CN1CCN(c2cc(=O)n(C)c(=O)[nH]2)CC1, the Kd is reported as > 4 mM (inactive). For COc1ccc(C(O)c2nccn2C)cc1 (stereo not given), the Kd was > 4 mM (inactive). With Cn1c(-c2ccccc2F)n[nH]c1=S the Kd was > 4 mM (inactive). In the case of Clc1ccc(-n2ccnc2)nn1, the Kd is reported as > 4 mM (inactive). For CN(C)S(=O)(=O)c1ccc(N2CCOCC2)nc1, the Kd was > 4 mM (inactive). With O=C(NCc1cccc(Cl)c1)c1cnccn1 the Kd was > 4 mM (inactive). O=c1cccc2n1C[C@H]1CNCC2C1 was tested, and the Kd was > 4 mM (inactive). With C=C[C@@](C)(O)CCC1C(=C)CCC2[C@@](C)(CO)CCC[C@]12C (stereo not given in full) the Kd was > 4 mM (inactive). With NC(=O)COc1cccc2cccnc12 the Kd was > 4 mM (inactive). With NC(=O)c1ccc(-c2csnn2)cc1 the Kd was > 4 mM (inactive). For Cc1cc(=O)c2c(O)cc(O)c(C)c2o1, the Kd was > 4 mM (inactive). With CS(=O)(=O)c1cccc(C(=O)Nc2nccs2)c1 the Kd was > 4 mM (inactive). In the case of O=C(O)c1ccc2nccnc2c1, the Kd is reported as > 4 mM (inactive). With O=C(O)C1CC2CC1CCC2O (stereo not given) the Kd was > 4 mM (inactive). CC(=O)Nc1ccccc1OCC(N)=O was tested, and the Kd was > 4 mM (inactive). With CCNS(=O)(=O)c1ccc(OC)c(C)c1 the Kd was > 4 mM (inactive). For NC(=O)CSc1nc2ncnc(N)c2[nH]1, the Kd was > 4 mM (inactive). With O=C(O)/C=C1\NC(=O)c2ccccc21 the Kd was > 4 mM (inactive).
